Test results as given in patent publication US8614327B2 (Vertex Pharmaceuticals Incorporated, priority 2004, dated 2013).

Target: T1, ΔF508-CFTR (Homo sapiens, UniProt P13569, DEL508-508)
T1 construct: expressed in transfected cells
Test: Membrane potential optical (FRET/VIPR) assay, identification of potentiator compounds
Type: cell-based
Settings: Table 3, assay not given; for % Activity: relative efficacy
Procedure, shortened: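 Double-addition potentiator screen: compound delivered in gluconate-substituted Cl^--free medium, membrane potential followed via CC2-DMPE/DiSBAC2(3) FRET on VIPR. Cells were ΔF508-CFTR-expressing NIH3T3 mouse fibroblasts, held 2 h at 37° C. then 24 h at 27° C. before assay.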

T1 sequence (P13569 with tags, fused parts or gaps DEL508-508): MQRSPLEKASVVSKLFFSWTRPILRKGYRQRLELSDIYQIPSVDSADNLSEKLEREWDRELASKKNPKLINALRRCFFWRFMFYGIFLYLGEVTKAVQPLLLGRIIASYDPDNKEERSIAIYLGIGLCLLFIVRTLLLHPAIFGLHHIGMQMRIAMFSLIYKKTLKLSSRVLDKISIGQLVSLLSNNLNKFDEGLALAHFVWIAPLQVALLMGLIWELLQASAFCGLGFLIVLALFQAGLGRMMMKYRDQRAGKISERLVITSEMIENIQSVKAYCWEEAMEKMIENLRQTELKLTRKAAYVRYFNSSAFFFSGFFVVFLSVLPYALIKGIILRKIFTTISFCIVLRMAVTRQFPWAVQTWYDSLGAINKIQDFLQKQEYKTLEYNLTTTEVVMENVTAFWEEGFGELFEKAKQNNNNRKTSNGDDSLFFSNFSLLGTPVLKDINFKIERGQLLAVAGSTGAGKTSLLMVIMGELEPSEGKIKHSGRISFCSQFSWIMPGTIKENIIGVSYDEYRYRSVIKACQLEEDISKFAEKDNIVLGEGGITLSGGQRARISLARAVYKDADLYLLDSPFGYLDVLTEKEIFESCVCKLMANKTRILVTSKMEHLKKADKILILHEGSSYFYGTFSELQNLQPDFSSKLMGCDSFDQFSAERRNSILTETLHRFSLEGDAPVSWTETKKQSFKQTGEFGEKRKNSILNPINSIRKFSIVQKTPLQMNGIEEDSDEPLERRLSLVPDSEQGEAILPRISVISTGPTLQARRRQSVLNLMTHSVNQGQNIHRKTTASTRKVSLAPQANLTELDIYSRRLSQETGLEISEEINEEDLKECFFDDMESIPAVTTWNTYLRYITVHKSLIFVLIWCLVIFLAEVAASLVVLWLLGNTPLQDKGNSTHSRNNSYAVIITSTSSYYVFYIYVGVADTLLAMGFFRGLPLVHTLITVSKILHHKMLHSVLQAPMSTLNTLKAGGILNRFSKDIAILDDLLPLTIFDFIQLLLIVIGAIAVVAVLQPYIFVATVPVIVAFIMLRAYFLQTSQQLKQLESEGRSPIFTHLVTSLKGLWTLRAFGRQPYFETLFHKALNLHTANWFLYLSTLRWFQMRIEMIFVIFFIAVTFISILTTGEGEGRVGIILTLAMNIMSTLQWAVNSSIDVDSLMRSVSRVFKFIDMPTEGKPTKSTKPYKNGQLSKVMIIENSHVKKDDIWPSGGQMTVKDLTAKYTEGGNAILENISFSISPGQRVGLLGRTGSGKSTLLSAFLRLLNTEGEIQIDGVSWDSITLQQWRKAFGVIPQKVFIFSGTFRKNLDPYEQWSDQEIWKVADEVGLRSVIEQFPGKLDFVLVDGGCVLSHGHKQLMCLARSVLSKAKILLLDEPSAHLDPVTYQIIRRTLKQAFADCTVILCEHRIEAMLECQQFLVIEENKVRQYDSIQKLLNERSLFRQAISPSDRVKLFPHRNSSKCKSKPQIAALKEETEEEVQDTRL

Row | EC50 [µM] | % Activity | Structure (SMILES)
1 | < 10 | ++ (between 25% to 100%) | CC(C)(C)c1cc2ccc(NC(=O)c3c[nH]c4ccccc4c3=O)cc2[nH]1 [Compound 320, 4-oxo-N-(2-tert-butyl-1H-indol-6-yl)-1H-quinoline-3-carboxamide]
2 | < 10 | ++ (between 25% to 100%) | O=C(Nc1ccccc1N1CCN(C(=O)c2ccccc2)CC1)c1c[nH]c2ccccc2c1=O [Compound 321, N-[2-(4-benzoylpiperazin-1-yl)phenyl]-4-oxo-1H-quinoline-3-carboxamide]
3 | < 10 | ++ (between 25% to 100%) | CCc1cccc(C(C)CC)c1NC(=O)c1c[nH]c2ccccc2c1=O (stereo not drawn) [Compound 322, N-(2-ethyl-6-sec-butyl-phenyl)-4-oxo-1H-quinoline-3-carboxamide]
4 | < 10 | ++ (between 25% to 100%) | COC(=O)NCC(C)(C)c1ccc(NC(=O)c2c[nH]c3ccccc3c2=O)cc1 [Compound 323, [2-Methyl-2-[4-[(4-oxo-1H-quinolin-3-yl)carbonylamino]phenyl]-propyl]aminoformic acid methyl ester]
5 | < 10 | ++ (between 25% to 100%) | CCCCc1ccc(NC(=O)c2c[nH]c3ccccc3c2=O)cc1 [Compound 324, N-(4-butylphenyl)-4-oxo-1H-quinoline-3-carboxamide]
6 | < 10 | ++ (between 25% to 100%) | CCc1cccc(CC)c1NC(=O)c1c[nH]c2ccccc2c1=O [Compound 325, N-(2,6-diethylphenyl)-4-oxo-1H-quinoline-3-carboxamide]
7 | 10 to 25 | ++ (between 25% to 100%) | CS(=O)(=O)c1ccc(-c2ccccc2NC(=O)c2c[nH]c3ccccc3c2=O)cc1 [Compound 326, N-[2-(4-methylsulfonylphenyl)phenyl]-4-oxo-1H-quinoline-3-carboxamide]
8 | < 10 | ++ (between 25% to 100%) | CCOc1ccccc1-c1cc2cc[nH]c2cc1NC(=O)c1c[nH]c2ccccc2c1=O [Compound 327, N-[5-(2-ethoxyphenyl)-1H-indol-6-yl]-4-oxo-1H-quinoline-3-carboxamide]
9 | 25 to 60 | + (<25%) | CC(=O)c1cccc(NC(=O)c2c[nH]c3ccccc3c2=O)c1 [Compound 328, N-(3-acetylphenyl)-4-oxo-1H-quinoline-3-carboxamide]
10 | 10 to 25 | ++ (between 25% to 100%) | Cc1ccccc1-c1nc2cc(NC(=O)c3c[nH]c4ccccc4c3=O)ccc2o1 [Compound 329, N-[2-(o-tolyl)benzooxazol-5-yl]-4-oxo-1H-quinoline-3-carboxamide]
11 | < 10 | ++ (between 25% to 100%) | O=C(Nc1ccccc1Cl)c1c[nH]c2ccccc2c1=O [Compound 330, N-(2-chlorophenyl)-4-oxo-1H-quinoline-3-carboxamide]
12 | 25 to 60 | + (<25%) | NC(=O)c1ccccc1NC(=O)c1c[nH]c2ccccc2c1=O [Compound 331, N-(2-carbamoylphenyl)-4-oxo-1H-quinoline-3-carboxamide]
13 | < 10 | ++ (between 25% to 100%) | C#Cc1ccc(NC(=O)c2c[nH]c3ccccc3c2=O)cc1 [Compound 332, N-(4-ethynylphenyl)-4-oxo-1H-quinoline-3-carboxamide]
14 |  | ++ (between 25% to 100%) | N#CCc1ccc(-c2ccccc2NC(=O)c2c[nH]c3ccccc3c2=O)cc1 [Compound 333, N-[2-[4-(cyanomethyl)phenyl]phenyl]-4-oxo-1H-quinoline-3-carboxamide]
15 | 10 to 25 | ++ (between 25% to 100%) | CC(=O)N1CCC2(CCN(C(=O)OC(C)(C)C)CC2)c2ccc(NC(=O)c3c[nH]c4ccccc4c3=O)cc21 [Compound 334, 7′-[(4-oxo-1H-quinolin-3-ylcarbonyl)amino]-spiro[piperidine-4,4′(1′H)-1-acetyl-quinoline], 2′,3′-dihydro-carboxylic acid tert-butyl ester]
16 | 25 to 60 | + (<25%) | Cc1ccc(C(N)=O)c(NC(=O)c2c[nH]c3ccccc3c2=O)c1 [Compound 335, N-(2-carbamoyl-5-methyl-phenyl)-4-oxo-1H-quinoline-3-carboxamide]
17 | < 10 | ++ (between 25% to 100%) | CCCCc1ccccc1NC(=O)c1c[nH]c2ccccc2c1=O [Compound 336, N-(2-butylphenyl)-4-oxo-1H-quinoline-3-carboxamide]
18 | < 10 | ++ (between 25% to 100%) | CN(C(=O)c1c[nH]c2ccccc2c1=O)c1cc(O)c(C(C)(C)C)cc1C(C)(C)C [Compound 337, N-(5-hydroxy-2,4-ditert-butyl-phenyl)-N-methyl-4-oxo-1H-quinoline-3-carboxamide]
19 | 10 to 25 | ++ (between 25% to 100%) | Cc1c[nH]c2cccc(NC(=O)c3c[nH]c4ccccc4c3=O)c12 [Compound 338, N-(3-methyl-1H-indol-4-yl)-4-oxo-1H-quinoline-3-carboxamide]

Row | EC50 [µM] | % Activity | Structure (SMILES)
20 | < 10 | ++ (between 25% to 100%) | N#Cc1c[nH]c2cc(NC(=O)c3c[nH]c4ccccc4c3=O)ccc12 [Compound 339, N-(3-cyano-1H-indol-6-yl)-4-oxo-1H-quinoline-3-carboxamide]
21 | < 10 | ++ (between 25% to 100%) | CCCc1ccc(NC(=O)c2c[nH]c3ccccc3c2=O)cc1NS(C)(=O)=O [Compound 340, N-(3-methylsulfonylamino-4-propyl-phenyl)-4-oxo-1H-quinoline-3-carboxamide]
22 | < 10 | ++ (between 25% to 100%) | CC(C)(C)COC(=O)NCC(C)(C)c1ccc(NC(=O)c2c[nH]c3ccccc3c2=O)cc1 [Compound 341, [2-methyl-2-[4-[(4-oxo-1H-quinolin-3-yl)carbonylamino]phenyl]-propyl]aminoformic acid neopentyl ester]
23 | < 10 | ++ (between 25% to 100%) | CC(C)c1ccc(-c2cc3cc[nH]c3cc2NC(=O)c2c[nH]c3ccccc3c2=O)cc1 [Compound 342, N-[5-(4-isopropylphenyl)-1H-indol-6-yl]-4-oxo-1H-quinoline-3-carboxamide]
24 | 10 to 25 | ++ (between 25% to 100%) | CC(C)CNC(=O)c1cc2cc[nH]c2cc1NC(=O)c1c[nH]c2ccccc2c1=O [Compound 343, N-[5-(Isobutylcarbamoyl)-1H-indol-6-yl]-4-oxo-1H-quinoline-3-carboxamide]
25 |  | ++ (between 25% to 100%) | CCOc1ccccc1-c1ccccc1NC(=O)c1c[nH]c2ccccc2c1=O [Compound 344, N-[2-(2-ethoxyphenyl)phenyl]-4-oxo-1H-quinoline-3-carboxamide]
26 | < 10 | ++ (between 25% to 100%) | O=C(Nc1ccc2cc[nH]c2c1)c1cnc2ccc(F)cc2c1O [Compound 345, 6-fluoro-4-hydroxy-N-(1H-indol-6-yl)quinoline-3-carboxamide]
27 | < 10 | ++ (between 25% to 100%) | O=C(Nc1ccccc1)c1c[nH]c2cc(C(F)(F)F)ccc2c1=O [Compound 346, 4-oxo-N-phenyl-7-(trifluoromethyl)-1H-quinoline-3-carboxamide]
28 | 10 to 25 | ++ (between 25% to 100%) | CN(C)CCNC(=O)c1ccc(-c2cc3cc[nH]c3cc2NC(=O)c2c[nH]c3ccccc3c2=O)cc1 [Compound 347, N-[5-[4-(2-dimethylaminoethylcarbamoyl)phenyl]-1H-indol-6-yl]-4-oxo-1H-quinoline-3-carboxamide]
29 | < 10 | ++ (between 25% to 100%) | CCOc1ccc(-c2ccccc2NC(=O)c2c[nH]c3ccccc3c2=O)cc1 [Compound 348, N-[2-(4-ethoxyphenyl)phenyl]-4-oxo-1H-quinoline-3-carboxamide]
30 | < 10 | ++ (between 25% to 100%) | O=C(Nc1cccc2ccccc12)c1c[nH]c2ccccc2c1=O [Compound 350, N-(1-naphthyl)-4-oxo-1H-quinoline-3-carboxamide]
31 | < 10 | ++ (between 25% to 100%) | CCc1cc2cc[nH]c2cc1NC(=O)c1c[nH]c2ccccc2c1=O [Compound 351, N-(5-ethyl-1H-indol-6-yl)-4-oxo-1H-quinoline-3-carboxamide]
32 | < 10 | ++ (between 25% to 100%) | CC(C)(C)OC(=O)NCCc1c[nH]c2cc(NC(=O)c3c[nH]c4ccccc4c3=O)ccc12 [Compound 352, 2-[6-[(4-oxo-1H-quinolin-3-yl)carbonylamino]-1H-indol-3-yl]ethylaminoformic acid tert-butyl ester]
33 | < 10 | ++ (between 25% to 100%) | CC(C)(C)OC(=O)Nc1ccc(C(C)(C)C)c(NC(=O)c2c[nH]c3ccccc3c2=O)c1 [Compound 353, [3-[(4-oxo-1H-quinolin-3-yl)carbonylamino]-4-tert-butyl-phenyl]aminoformic acid tert-butyl ester]
34 | < 10 | ++ (between 25% to 100%) | CN(Cc1ccccc1NC(=O)c1c[nH]c2ccccc2c1=O)C1CCCCC1 [Compound 354, N-[2-[(cyclohexyl-methyl-amino)methyl]phenyl]-4-oxo-1H-quinoline-3-carboxamide]
35 | < 10 | ++ (between 25% to 100%) | COc1ccccc1-c1ccccc1NC(=O)c1c[nH]c2ccccc2c1=O [Compound 355, N-[2-(2-methoxyphenyl)phenyl]-4-oxo-1H-quinoline-3-carboxamide]
36 | < 10 | ++ (between 25% to 100%) | CCCc1ccc(NC)cc1NC(=O)c1c[nH]c2ccccc2c1=O [Compound 356, N-(5-methylamino-2-propyl-phenyl)-4-oxo-1H-quinoline-3-carboxamide]
37 | < 10 | ++ (between 25% to 100%) | CC(C)c1c[nH]c2cc(NC(=O)c3c[nH]c4ccccc4c3=O)ccc12 [Compound 357, N-(3-isopropyl-1H-indol-6-yl)-4-oxo-1H-quinoline-3-carboxamide]
